Patent US6737383B1, “Herbicidal oxadiazolidines” (priority 1999, dated 2004)

Legend:
cocklebur = assay: Test B pre/postemergence cocklebur; assay type: in vivo, Xanthium strumarium
Outline: (§1)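 Test chemicals in a non-phytotoxic solvent mixture with surfactant were sprayed preemergence onto planted seeds and postemergence onto plants 2 to 18 cm tall (1- to 4-leaf stage). After twelve to sixteen days in a greenhouse, injury was visually rated against untreated controls from 0 (no effect) to 10 (complete control).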

giant foxtail = assay: Test B pre/postemergence giant foxtail; assay type: in vivo, Setaria faberii
Outline: as §1

rape = assay: Test B pre/postemergence rape; assay type: in vivo, Brassica napus
Outline: as §1

wild oat = assay: Test B pre/postemergence wild oat; assay type: in vivo, Avena fatua
Outline: as §1

pigweed = assay: Test B pre/postemergence pigweed; assay type: in vivo, Amaranthus retroflexus
Outline: as §1

purple nutsedge = assay: Test B pre/postemergence purple nutsedge; assay type: in vivo, Cyperus rotundus
Outline: as §1

blackgrass = assay: Test B pre/postemergence blackgrass; assay type: in vivo, Alopecurus myosuroides
Outline: as §1

wheat = assay: Test B pre/postemergence wheat; assay type: in vivo, Triticum aestivum
Outline: as §1

crabgrass = assay: Test B pre/postemergence crabgrass; assay type: in vivo, Digitaria sanguinalis
Outline: as §1

corn = assay: Test B pre/postemergence corn; assay type: in vivo, Zea mays
Outline: as §1

morningglory = assay: Test B pre/postemergence morningglory; assay type: in vivo, Ipomoea hederacea
Outline: as §1

soybean = assay: Test B pre/postemergence soybean; assay type: in vivo, Glycine max
Outline: as §1

bedstraw = assay: Test B pre/postemergence bedstraw; assay type: in vivo, Galium aparine; conditions: Preemergence
Outline: as §1

surinam grass = assay: Test B pre/postemergence surinam grass; assay type: in vivo, Brachiaria decumbens
Outline: as §1

velvetleaf = assay: Test B pre/postemergence velvetleaf; assay type: in vivo, Abutilon theophrasti
Outline: as §1

sugar beet = assay: Test B pre/postemergence sugar beet; assay type: in vivo, Beta vulgaris
Outline: as §1

[1] = Postemergence, Rate 125 g/ha, scale of 0 to 10 where 0 is no effect and 10 is complete control
[2] = Postemergence, Rate 1000 g/ha, scale 0 to 10 (0 no effect, 10 complete control)
[3] = Preemergence, Rate 125 g/ha, scale of 0 to 10 where 0 is no effect and 10 is complete control
[4] = Preemergence, Rate 250 g/ha, scale 0 (no effect) to 10 (complete control)
[5] = Rate 250 g/ha, Postemergence, scale 0 to 10, 0 is no effect, 10 is complete control
[6] = Rate 500 g/ha, Postemergence, scale 0 to 10, 0 is no effect, 10 is complete control
[7] = Rate 500 g/ha, Preemergence, scale 0 to 10 (0 no effect, 10 complete control)
[8] = Rate 1000 g/ha, Preemergence, scale 0 to 10 (0 no effect, 10 complete control)

CCOP(=O)(Cn1c(=O)on(C(=O)N(c2ccc(F)cc2F)C(C)C)c1=O)OCC [Compound 736]
Cocklebur plant response rating (cocklebur; [1]): 0
Cocklebur plant response rating (cocklebur; [2]): 10
Plant response rating, Cocklebur (cocklebur; [3]): 0
Cocklebur plant response rating (cocklebur; [4]): 2
Cocklebur plant response rating (cocklebur; [5]): 0
Cocklebur plant response rating (cocklebur; [6]): 3
Cocklebur plant response rating (cocklebur; [7]): 2
Plant response rating, Cocklebur (cocklebur; [8]): 2
Giant foxtail plant response rating (giant foxtail; [1]): 2
Giant foxtail plant response rating (giant foxtail; [2]): 6
Plant response rating, Giant foxtail (giant foxtail; [3]): 8
Giant foxtail plant response rating (giant foxtail; [4]): 9
Giant foxtail plant response rating (giant foxtail; [5]): 2
Giant foxtail plant response rating (giant foxtail; [6]): 7
Giant foxtail plant response rating (giant foxtail; [7]): 9
Plant response rating, Giant foxtail (giant foxtail; [8]): 8
Rape plant response rating (rape; [1]): 0
Rape plant response rating (rape; [2]): 0
Plant response rating, Rape (rape; [3]): 0
Rape plant response rating (rape; [4]): 0
Rape plant response rating (rape; [5]): 0
Rape plant response rating (rape; [6]): 0
Rape plant response rating (rape; [7]): 2
Plant response rating, Rape (rape; [8]): 2
Wild oats plant response rating (wild oat; [1]): 2
Plant response rating, Wild oats (wild oat; [3]): 2
Wild oats plant response rating (wild oat; [4]): 9
Wild oats plant response rating (wild oat; [5]): 3
Wild oats plant response rating (wild oat; [6]): 3
Wild oats plant response rating (wild oat; [7]): 9
Plant response rating, Wild oats (wild oat; [8]): 10
Redroot pigweed plant response rating (pigweed; [1]): 2
Redroot pigweed plant response rating (pigweed; [2]): 3
Plant response rating, Redroot pigweed (pigweed; [3]): 0
Redroot pigweed plant response rating (pigweed; [4]): 2
Redroot pigweed plant response rating (pigweed; [6]): 0
Redroot pigweed plant response rating (pigweed; [7]): 2
Plant response rating, Redroot pigweed (pigweed; [8]): 2
Nutsedge plant response rating (purple nutsedge; [1]): 0
Nutsedge plant response rating (purple nutsedge; [2]): 5
Plant response rating, Nutsedge (purple nutsedge; [3]): 0
Nutsedge plant response rating (purple nutsedge; [4]): 0
Nutsedge plant response rating (purple nutsedge; [5]): 0
Nutsedge plant response rating (purple nutsedge; [6]): 2
Nutsedge plant response rating (purple nutsedge; [7]): 10
Plant response rating, Nutsedge (purple nutsedge; [8]): 8
Blackgrass plant response rating (blackgrass; [1]): 0
Blackgrass plant response rating (blackgrass; [2]): 7
Plant response rating, Blackgrass (blackgrass; [3]): 2
Blackgrass plant response rating (blackgrass; [4]): 4
Blackgrass plant response rating (blackgrass; [5]): 2
Blackgrass plant response rating (blackgrass; [6]): 3
Blackgrass plant response rating (blackgrass; [7]): 9
Plant response rating, Blackgrass (blackgrass; [8]): 10
Wheat plant response rating (wheat; [1]): 2
Plant response rating, Wheat (wheat; [3]): 3
Wheat plant response rating (wheat; [4]): 3
Wheat plant response rating (wheat; [5]): 2
Wheat plant response rating (wheat; [6]): 2
Wheat plant response rating (wheat; [7]): 8
Plant response rating, Wheat (wheat; [8]): 9
Crabgrass plant response rating (crabgrass; [1]): 3
Crabgrass plant response rating (crabgrass; [2]): 6
Plant response rating, Crabgrass (crabgrass; [3]): 3
Crabgrass plant response rating (crabgrass; [4]): 4
Crabgrass plant response rating (crabgrass; [5]): 3
Crabgrass plant response rating (crabgrass; [6]): 4
Crabgrass plant response rating (crabgrass; [7]): 9
Plant response rating, Crabgrass (crabgrass; [8]): 9
Corn plant response rating (corn; [1]): 4
Corn plant response rating (corn; [2]): 4
Plant response rating, Corn (corn; [3]): 2
Corn plant response rating (corn; [4]): 2
Corn plant response rating (corn; [5]): 3
Corn plant response rating (corn; [6]): 4
Corn plant response rating (corn; [7]): 2
Plant response rating, Corn (corn; [8]): 9
Morningglory plant response rating (morningglory; [1]): 6
Morningglory plant response rating (morningglory; [2]): 7
Plant response rating, Morningglory (morningglory; [3]): 0
Morningglory plant response rating (morningglory; [4]): 2
Morningglory plant response rating (morningglory; [5]): 6
Morningglory plant response rating (morningglory; [6]): 5
Morningglory plant response rating (morningglory; [7]): 6
Plant response rating, Morningglory (morningglory; [8]): 6
Soybean plant response rating (soybean; [1]): 3
Plant response rating, Soybean (soybean; [3]): 0
Soybean plant response rating (soybean; [4]): 2
Soybean plant response rating (soybean; [5]): 4
Soybean plant response rating (soybean; [6]): 3
Soybean plant response rating (soybean; [7]): 2
Plant response rating, Soybean (soybean; [8]): 3
Plant response rating, Bedstraw (bedstraw; Rate 125 g/ha, scale of 0 to 10 where 0 is no effect and 10 is complete control): 0
Bedstraw plant response rating (bedstraw; Rate 250 g/ha, scale 0 (no effect) to 10 (complete control)): 0
Bedstraw plant response rating (bedstraw; Rate 500 g/ha, scale 0 to 10 (0 no effect, 10 complete control)): 8
B. signalgrass plant response rating (surinam grass; [1]): 0
B. signalgrass plant response rating (surinam grass; [2]): 7
Plant response rating, B. signalgrass (surinam grass; [3]): 3
B. signalgrass plant response rating (surinam grass; [4]): 3
B. signalgrass plant response rating (surinam grass; [5]): 0
B. signalgrass plant response rating (surinam grass; [6]): 0
B. signalgrass plant response rating (surinam grass; [7]): 8
Plant response rating, B. signalgrass (surinam grass; [8]): 9
Velvetleaf plant response rating (velvetleaf; [1]): 2
Plant response rating, Velvetleaf (velvetleaf; [3]): 0
Velvetleaf plant response rating (velvetleaf; [4]): 0
Velvetleaf plant response rating (velvetleaf; [5]): 2
Velvetleaf plant response rating (velvetleaf; [6]): 3
Velvetleaf plant response rating (velvetleaf; [7]): 4
Plant response rating, Velvetleaf (velvetleaf; [8]): 3
Sugarbeets plant response rating (sugar beet; [1]): 0
Plant response rating, Sugarbeets (sugar beet; [3]): 0
Sugarbeets plant response rating (sugar beet; [4]): 0
Sugarbeets plant response rating (sugar beet; [5]): 0
Sugarbeets plant response rating (sugar beet; [6]): 0
Sugarbeets plant response rating (sugar beet; [7]): 3
Plant response rating, Sugarbeets (sugar beet; [8]): 5
